Assay results as given in paper PMC6008299, “Impact of race on dose selection of molecular-targeted agents in early-phase oncology trials” (British Journal of Cancer, 2018).

Tests used:
Assay type in all cases: in vivo, human
[1] = test system: patients with advanced, refractory solid tumours; assay: US and Japanese phase I studies combined: safety
Protocol: We conducted two independent, prospective, first-in-human phase I studies of DS-7423, a dual PI3K/mTOR inhibitor, in patients with advanced, refractory solid tumours in the US (U101 study) and Japan (J102 study); age ≥18 years in the US and ≥20 years in Japan; and Eastern Cooperative Oncology Group performance status (ECOG PS) 0–1. Key exclusion criteria included fasting glucose >126 mg/dL (>7 mmol/L); HbA1c >7.0% for the US and HbA1c >6.5% for Japan; history of diabetes mellitus (type I or II); concomitant use of chronic systemic corticosteroids, or prior toxicities from a dual PI3K/mTOR inhibitor (Supplementary Table 1). Studies were approved by the Institutional Review Board at the participating institutions and regulatory authorities. Written informed consent in English and Japanese was obtained from all patients prior to enrollment. The study followed the Declaration of Helsinki and good clinical practice guidelines and was registered with ClinicalTrials.gov (NCT01364844) and with ClinicalTrials.jp (Japic CTI, 12766).
The primary objective was to assess the safety and tolerability to determine the MTD and RP2D of DS-7423 in US and Japanese patients. Secondary and exploratory objectives were to evaluate PK, tumour response, and PD effects. Treatment-emergent adverse events (TEAE) were graded using the Common Terminology Criteria for Adverse Events version 4.0. A dose-limiting toxicity (DLT) was defined as a grade ≥3 clinically significant toxicity, with the exceptions of grade ≥4 anaemia and prolonged grade 3 neutropenia. Both studies were open-label, phase I dose-escalation studies. In Japan, the study was conducted at a single centre, while the US study was conducted at three sites. In Japan, dose escalation of DS-7423 was guided by the modified continuous reassessment method (mCRM) using a Bayesian logistic regression model following the escalation with overdose control (EWOC) principle at a starting dose of 4 mg once daily.[9] In the US, an accelerated titration design was used at low doses followed by a mCRM with EWOC. Briefly, the dose was escalated based on safety data in a single patient until a grade 2 or higher toxicity was observed during cycle 1 or the DLT period (days 1–28). In both studies, DS-7423 was administered orally once daily until patients experienced unacceptable treatment-related toxicity or disease progression. Prophylactic granulocyte colony-stimulating factor and antiemetics were not permitted during cycle 1.

[2] = Pharmacokinetics in Japanese cohort (J102)
Protocol: (§1) In both studies, the PK profile of DS-7423 was characterised during cycle 1 on days 1 and 8. For PD analysis, glucose, C-peptide, and Akt phosphorylation were measured in platelet-rich plasma collected at predose, 1, 2, 4, 6, and 24 h after dosing on days 1 and 15. Tumour assessment was performed every two cycles using Response Evaluation Criteria in Solid Tumours (RECIST) version 1.1 in both studies. 18F-Fluoro-2-deoxy-D-glucose positron emission tomography ([18F]-FDG) was performed as an exploratory endpoint at baseline and on day 4.[10]
The data cut-off for the primary analysis occurred after all patients had either discontinued the study or completed 6 months of study drug treatment. Descriptive statistics were provided for selected demographic, safety, PK, and PD data by dose and time as appropriate. Descriptive statistics on continuous data included means, medians, standard deviations, and ranges, while categorical data were summarised using frequency counts and percentages. No inferential analysis to compare dose levels was performed due to limited sample sizes. The WinNonlin software was used for PK analysis.

[3] = test system: tumour [18F]-FDG uptake; assay: [18F]-FDG-PET metabolic response, Japanese (Asian) patients; details: day 4
Protocol: as §1

[4] = test system: advanced solid tumours; assay: Tumour assessment RECIST 1.1, US study; details: of 27 patients
Protocol: as §1

[5] = dose level 4, Japanese cohort (n = 3)
[6] = dose level 8, Japanese cohort (n = 3)
[7] = dose level 16, Japanese cohort (n = 2)
[8] = dose level 160, Japanese cohort (n = 3)
[9] = dose level 240, Japanese cohort (n = 5)

## CC(=O)N1CCN(c2nc3c(N4CCOCC4)nc(-c4cnc(N)nc4)nc3n2CC(F)(F)F)C[C@H]1C [DS-7423]
[1]; All (n = 69)
  AST increased (TEAE), incidence: 10.1%
  AST increased (TEAE), n patients: 7
  Abdominal pain (TEAE), incidence: 14.5%
  Abdominal pain (TEAE), n patients: 10
  Back pain (TEAE), incidence: 15.9%
  Back pain (TEAE), n patients: 11
  Blood creatinine increased (TEAE), incidence: 10.1%
  Blood creatinine increased (TEAE), n patients: 7
  Constipation (TEAE), incidence: 18.8%
  Constipation (TEAE), n patients: 13
  Cough (TEAE), incidence: 15.9%
  Cough (TEAE), n patients: 11
  Decreased appetite (TEAE), incidence: 49.3%
  Decreased appetite (TEAE), n patients: 34
  Dehydration (TEAE), incidence: 8.7%
  Dehydration (TEAE), n patients: 6
  Diarrhoea (TEAE), incidence: 56.5%
  Diarrhoea (TEAE), n patients: 39
  Dry mouth (TEAE), incidence: 18.8%
  Dry mouth (TEAE), n patients: 13
  Dysgeusia (TEAE), incidence: 27.5%
  Dysgeusia (TEAE), n patients: 19
  Edema (TEAE), incidence: 17.4%
  Edema (TEAE), n patients: 12
  Fatigue (TEAE), incidence: 55.1%
  Fatigue (TEAE), n patients: 38
  Hyperglycaemia (TEAE), incidence: 17.4%
  Hyperglycaemia (TEAE), n patients: 12
  Lung infection/ pneumonia (TEAE), incidence: 5.8%
  Lung infection/ pneumonia (TEAE), n patients: 4
  Nausea (TEAE), incidence: 56.5%
  Nausea (TEAE), n patients: 39
  Pyrexia (TEAE), incidence: 14.5%
  Pyrexia (TEAE), n patients: 10
  Rash (TEAE), incidence: 33.3%
  Rash (TEAE), n patients: 23
  Stomatitis (TEAE), incidence: 33.3%
  Stomatitis (TEAE), n patients: 23
  Vomiting (TEAE), incidence: 37.7%
  Vomiting (TEAE), n patients: 26
[1]; US and Japan phase I studies, oral once daily
  RP2D: 240 mg/day
[1]; all cohorts
  DS-7423-related ≥grade 3 TEAE: rare
  Grade of nausea, vomiting, and dysgeusia events: grade 1 or 2
[2]; [5]
  Mean AUCtau: 31.1 ng·h/mL
  Mean Cmax: 3 ng/mL
  T1/2: 6 to 7 h
  Tmax: 2 to 4 h
[2]; [6]
  Mean AUCtau: 84.2 ng·h/mL
  Mean Cmax: 10 ng/mL
  T1/2: 6 to 7 h
  Tmax: 2 to 4 h
[2]; [7]
  Mean AUCtau: 178 ng·h/mL
  Mean Cmax: 18 ng/mL
  T1/2: 6 to 7 h
  Tmax: 2 to 4 h
[2]; [8]
  Mean AUCtau: 1223.3 ng·h/mL
  Mean Cmax: 61 ng/mL
  T1/2: 6 to 7 h
  Tmax: 2 to 4 h
[2]; [9]
  Mean AUCtau: 1184.8 ng·h/mL
  Mean Cmax: 83.6 ng/mL
  T1/2: 12 h
  Tmax: 2 to 4 h
[3]
  Patients with partial metabolic response ([18F]-FDG-PET): 36.4%
[3]; of 11 patients
  Patients with partial metabolic response ([18F]-FDG-PET): 4
[4]
  Patients with tumour shrinkage and durable disease control: 5
